SMILES strings stand for the structures.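 How tested: cells in 96-well plates exposed to compound for 48 hours at five concentrations. GI50 is the concentration that inhibits growth by half.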 The source made the active and inactive calls. No stated cut-off is given here; in the data, active = GI50 up to about 1.1 µM and inactive = higher.

Holding throughout (assay): growth of human tumour cells (NCI), 48 h
The test system of assay [1] is SF-539.
The subject of assay [2] is SK-MEL-28.
Assay [3] concerns MOLT-4.
In assay [4] the test system is SR.
Assay [5] concerns U-251.
Assay [6] deals with NCI/ADR-RES.
Assay [7] concerns NCI-H460.
Assay [8] deals with Hs-578T.
Assay [9] has as its system HOP-62.
For assay [10], the system named is RXF 393.
Assay [11] concerns KM12.
Assay [12] relates to SK-MEL-5.
Assay [13] concerns M14.
The subject of assay [14] is MCF7.
The subject of assay [15] is UACC-62.
In assay [16] the test system is UO-31.
Assay [17] concerns HCT-15.
Assay [18] deals with CCRF-CEM.
Assay [19] concerns 786-0.
The test system of assay [20] is DU-145.

Consider `CC(C)O/N=C/c1cc(NC(=S)OC(C)C)ccc1Cl`, for which the GI50 in assay [1] is 24.8 µM (inactive); in assay [2] it was > 62.2 µM (inactive); in [3], 15.8 µM (inactive); in assay [4], 16.1 µM (inactive); in [5], 32.2 µM (inactive); in assay [6], 35.5 µM (inactive). Further, the GI50 was 42.3 µM (inactive) in assay [7]; 30.1 µM (inactive) in assay [8]; 37.8 µM (inactive) in assay [9]; 20.6 µM (inactive) in [10]; 50.9 µM (inactive) in [11]; 23 µM (inactive) in [12]. Besides, the GI50 in [13] is 62.7 µM (inactive); in [14], 23.5 µM (inactive); in [15], 29.7 µM (inactive); in [16] it was 21.7 µM (inactive); in assay [17], 36.9 µM; in assay [18], 13.5 µM (inactive). In addition, the values for the GI50 in assay [19] and in assay [20] were 33.3 µM (inactive) and > 65.5 µM (inactive), respectively.
With `CN(C)CC1CCC/C(=C\c2ccc(OC(=O)/C=C/c3ccccc3)cc2)C1=O` (stereo not given), the GI50 was 1.77 µM (inactive) in assay [1]; 2.65 µM (inactive) in assay [2]; 1.3 µM (inactive) in [3]; 0.796 µM (active) in [4]; 1.72 µM (inactive) in [5]; 1.94 µM (inactive) in [6]. Further, the GI50 in [7] is 4.88 µM (inactive); in [8], 3.28 µM (inactive); in assay [9], 3.48 µM (inactive); in assay [10], 1.93 µM (inactive); in assay [11], 1.28 µM (inactive); in assay [12] it was 3.64 µM (inactive). The GI50 in assay [13] is 2.36 µM (inactive); in assay [14], 0.208 µM (active); in assay [15] it was 3.34 µM (inactive); in assay [16] it was 1.83 µM (inactive); in [17], 1.56 µM; in [18] it was 0.265 µM (active). Besides, the results for the GI50 in [19] and in assay [20] were 0.776 µM (active) and 2.47 µM (inactive), respectively.
For `Cc1ccc(NC(S)=Nc2c(C)n(C)n(-c3ccccc3)c2=O)cc1`, the GI50 in [1] is > 100 µM (inactive); in [2] it was > 100 µM (inactive); in [3], 87.9 µM (inactive); in assay [4], > 100 µM (inactive); in [5], > 100 µM (inactive); in assay [6], > 100 µM (inactive). Besides, the GI50 in assay [7], in [8], in assay [9], in assay [10], in assay [11] and in [12] was > 100 µM (inactive) each time. For the same molecule, the GI50 was > 100 µM (inactive) in assay [13]; > 100 µM (inactive) in [14]; > 100 µM (inactive) in assay [15]; > 100 µM (inactive) in [16]; over 100 µM in assay [17]; > 100 µM (inactive) in assay [18]. The GI50 in [19] and in assay [20] was > 100 µM (inactive) in each case.
On to `Cc1cc(=O)oc2c(CNC(Cc3ccccc3)C(=O)O)c(O)ccc12` (stereo not given), for which the GI50 in assay [1], in assay [2], in assay [3], in assay [4], in [5] and in [6] was > 100 µM (inactive) in each case. For the same molecule, the GI50 in assay [7], in [8], in [9], in [10], in [11] and in assay [12] was > 100 µM (inactive) in each case. In addition, the GI50 in assay [13] is > 100 µM (inactive); in assay [14] it was > 100 µM (inactive); in assay [15] it was > 100 µM (inactive); in [16] it was 73.3 µM (inactive); in [17], over 100 µM; in [18] it was > 100 µM (inactive). For the same molecule, the GI50 in [19] and in [20] was > 100 µM (inactive) throughout.
Consider `CCCCOC(=O)NC(Nc1cccc(C(F)(F)F)c1)(C(F)(F)F)C(F)(F)F`, for which the GI50 in assay [1] was 73.6 µM (inactive); in [2] it was > 100 µM (inactive); in [3] it was 34.8 µM (inactive); in assay [4], 23.1 µM (inactive); in assay [5], 36.1 µM (inactive); in assay [6] it was 45.3 µM (inactive). The GI50 is 32.7 µM (inactive) in assay [7]; 44.7 µM (inactive) in assay [8]; > 100 µM (inactive) in assay [9]; 50.7 µM (inactive) in [10]; 75.9 µM (inactive) in [11]; 49.9 µM (inactive) in assay [12]. The GI50 in [13] was 47.3 µM (inactive); in assay [14] it was 59.4 µM (inactive); in assay [15], 58.5 µM (inactive); in [16], 46.5 µM (inactive); in [17], 45.2 µM; in assay [18] it was 29.6 µM (inactive). Moreover, the values for the GI50 in assay [19] and in [20] were 84.1 µM (inactive) and > 100 µM (inactive), respectively.
With `CC1CC[C@@]2(OC1)OC1C[C@H]3[C@@H]4CCC5CC(O)CC[C@]5(C)[C@H]4C/C(=N\N(C)C)[C@]3(C)C1[C@@H]2C` (stereo not given in full), the GI50 in assay [1] is 23.8 µM (inactive); in assay [2], 43.7 µM (inactive); in assay [3], 24.7 µM (inactive); in [4], 13.8 µM (inactive); in assay [5], 31 µM (inactive); in assay [6], 19.5 µM (inactive). Besides, the GI50 in assay [7] is 30.5 µM (inactive); in [8], 28.6 µM (inactive); in assay [9], 16.7 µM (inactive); in [10], 16.3 µM (inactive); in assay [11] it was 25.5 µM (inactive); in assay [12], 21.7 µM (inactive). Besides, the GI50 was 32.3 µM (inactive) in [13]; 34.9 µM (inactive) in assay [14]; 27.6 µM (inactive) in [15]; 33.5 µM (inactive) in [16]; 23.4 µM in assay [17]; 37.8 µM (inactive) in [18]. Moreover, the GI50 in assay [19] is 20.3 µM (inactive); in [20] it was 21.8 µM (inactive).
Consider `CCOC(=O)C(SCCO)C(C(=O)OCC)n1cc(C)c(=O)[nH]c1=O` (stereo not given), for which the GI50 was 23.1 µM (inactive) in assay [1]; 19.4 µM (inactive) in [2]; 4.81 µM (inactive) in assay [3]; 6.92 µM (inactive) in [4]; 11.5 µM (inactive) in [5]; 24.8 µM (inactive) in [6]. For the same molecule, the GI50 in assay [7] was 21.5 µM (inactive); in assay [8], 63.4 µM (inactive); in [9] it was > 61.2 µM (inactive); in assay [10], 17 µM (inactive); in assay [11] it was 25.8 µM (inactive); in assay [12] it was 23.2 µM (inactive). In addition, the GI50 was 11.6 µM (inactive) in assay [13]; 11.6 µM (inactive) in assay [14]; 16.3 µM (inactive) in [15]; 22.9 µM (inactive) in [16]; 4.41 µM in assay [17]; 2.42 µM (inactive) in [18]. The GI50 in [19] was 3.88 µM (inactive); in assay [20], > 74.6 µM (inactive).
For `COc1ccccc1C(O)[C@@H]1C[C@@H]2[C@H]3CC[C@@](C)([C@@H]2O1)C3(C)C` (stereo not given in full), the GI50 is 6.53 µM (inactive) in [1]; 17.1 µM (inactive) in assay [2]; 15.4 µM (inactive) in assay [3]; 20.6 µM (inactive) in assay [4]; 16.5 µM (inactive) in assay [5]; 17.5 µM (inactive) in [6]. Moreover, the GI50 in assay [7] was 19.5 µM (inactive); in [8] it was 14.7 µM (inactive); in assay [9], 18.7 µM (inactive); in assay [10], 17.4 µM (inactive); in assay [11] it was 20.8 µM (inactive); in [12], 17.3 µM (inactive). For the same molecule, the GI50 in assay [13] is 21.4 µM (inactive); in assay [14], 19 µM (inactive); in assay [15], 16.6 µM (inactive); in assay [16], 17.9 µM (inactive); in [17], 20.7 µM; in [18], 20.8 µM (inactive). Besides, the GI50 in assay [19] was 17.8 µM (inactive); in assay [20], 22.1 µM (inactive).
For `Cc1ccc(NC(c2ccccc2)P(=O)(c2ccccc2)c2ccccc2)cc1` (stereo not given), the GI50 was > 100 µM (inactive) in [1]; > 100 µM (inactive) in [2]; > 100 µM (inactive) in [3]; 60.3 µM (inactive) in [4]; > 100 µM (inactive) in assay [5]; > 100 µM (inactive) in assay [6]. Moreover, the GI50 in assay [7] was > 100 µM (inactive); in assay [8], 44.7 µM (inactive); in assay [9] it was 95.5 µM (inactive); in [10], 47.1 µM (inactive); in assay [11], > 100 µM (inactive); in assay [12] it was > 100 µM (inactive). For the same molecule, the GI50 in assay [13] was > 100 µM (inactive); in assay [14], > 100 µM (inactive); in assay [15], > 100 µM (inactive); in [16] it was > 100 µM (inactive); in assay [17] it was over 100 µM; in assay [18] it was > 10 µM (inactive). Moreover, the GI50 in assay [19] was 95.1 µM (inactive); in assay [20] it was > 100 µM (inactive).
Take `N#Cc1c(N)nc2[nH]nc(N)c2c1-c1ccccc1`: the GI50 was 7.16 µM (inactive) in [1]; 14.2 µM (inactive) in [2]; 4.04 µM (inactive) in [3]; > 20.4 µM (inactive) in assay [4]; 21.2 µM (inactive) in [5]; 15 µM (inactive) in assay [6]. Moreover, the GI50 in assay [7] is 4.28 µM (inactive); in assay [8] it was 5.3 µM (inactive); in [9], 27.5 µM (inactive); in assay [10] it was 3.78 µM (inactive); in [11], 6.4 µM (inactive); in assay [12] it was 8.24 µM (inactive). The GI50 in assay [13] is 7.03 µM (inactive); in [14], 4.59 µM (inactive); in [15], 2.72 µM (inactive); in assay [16] it was 3.56 µM (inactive); in assay [17], 5.41 µM; in assay [18], 16.4 µM (inactive). The GI50 is 16.8 µM (inactive) in [19] and 8.11 µM (inactive) in assay [20].

For the origin of these results see ChEMBL document CHEMBL1201862, “PubChem BioAssay data set” (2004).
